Paper PMC5856393, “Synthetic pathways and processes for effective production of 5-hydroxytryptophan and serotonin from glucose in Escherichia coli” (Journal of Biological Engineering, 2018)

Columns and labels:
[1] = molecular target: T1, TDC (tryptophan decarboxylase) (Catharanthus roseus, UniProt P17770); experiment: whole-cell bioconversion, HPLC of serotonin; assay type: cell-based; conditions: E. coli BL21(DE3) delta-tnaA expressing TDC; pH 6.7, 30 °C
T1 construct: expressed in E. coli BL21(DE3) delta-tnaA from pCOLAJ23-TDC; gene from pCOLADuet-GSTdelta37T5H + TDC

[2] = molecular target: T2, CtAAAH-F (aromatic amino acid hydroxylase W192F) (Cupriavidus taiwanensis, UniProt B3R7Q6, W192F/F197L); experiment: tryptophan hydroxylation assay, Lineweaver-Burk plot; assay type: biochemical; conditions: made in the CtAAAH-F (W192F) background; assay conditions only by citation
T2 construct: gene phhA; engineered W192F parent, expressed in E. coli from pACYCDuet-1 derivatives; tag and purification not described here
Source text: (§1) tryptophan hydroxylation assay, Lineweaver-Burk plot on CtAAAH-F (aromatic amino acid hydroxylase W192F)

[3] = molecular target: T3, CtAAAH-F (aromatic amino acid hydroxylase W192F) (Cupriavidus taiwanensis, UniProt B3R7Q6, W192F/E219C); experiment: as above; assay type: biochemical; conditions: made in the CtAAAH-F (W192F) background; assay conditions only by citation
T3 construct: gene phhA; engineered W192F parent, expressed in E. coli from pACYCDuet-1 derivatives; tag and purification not described here
Source text: as §1

[4] = molecular target: T4, CtAAAH-F (aromatic amino acid hydroxylase W192F) (Cupriavidus taiwanensis, UniProt B3R7Q6, W192F); experiment: as above; assay type: biochemical; conditions: parent CtAAAH-F (W192F); assay conditions only by citation
T4 construct: gene phhA; engineered W192F parent, expressed in E. coli from pACYCDuet-1 derivatives; tag and purification not described here
Source text: as §1

[5] = molecular target: T5, CtAAAH-F (aromatic amino acid hydroxylase W192F) (Cupriavidus taiwanensis, UniProt B3R7Q6, W192F/F197I); experiment: as above; assay type: biochemical; conditions: made in the CtAAAH-F (W192F) background; assay conditions only by citation
T5 construct: gene phhA; engineered W192F parent, expressed in E. coli from pACYCDuet-1 derivatives; tag and purification not described here
Source text: as §1

[6] = molecular target: T6, CtAAAH-F (aromatic amino acid hydroxylase W192F) (Cupriavidus taiwanensis, UniProt B3R7Q6, W192F/F197L/E219C); experiment: as above; assay type: biochemical; conditions: made in the CtAAAH-F (W192F) background; assay conditions only by citation
T6 construct: gene phhA; engineered W192F parent, expressed in E. coli from pACYCDuet-1 derivatives; tag and purification not described here
Source text: as §1

T2 sequence (B3R7Q6 entry or part of it W192F/F197L): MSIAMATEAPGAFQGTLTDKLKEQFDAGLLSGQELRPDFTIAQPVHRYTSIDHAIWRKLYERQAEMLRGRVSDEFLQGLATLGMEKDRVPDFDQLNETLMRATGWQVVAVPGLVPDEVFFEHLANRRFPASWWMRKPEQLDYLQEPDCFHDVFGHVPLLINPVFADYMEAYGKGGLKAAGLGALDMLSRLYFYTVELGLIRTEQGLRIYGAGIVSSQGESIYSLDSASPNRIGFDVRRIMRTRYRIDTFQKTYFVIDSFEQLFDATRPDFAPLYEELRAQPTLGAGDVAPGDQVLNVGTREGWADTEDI
T4 sequence (B3R7Q6 entry or part of it W192F): as the sequence (B3R7Q6 entry or part of it W192F/F197L) above, with L197F counted along it
T6 sequence (B3R7Q6 entry or part of it W192F/F197L/E219C): as the sequence (B3R7Q6 entry or part of it W192F/F197L) above, with E219C counted along it
T1 sequence (P17770 whole entry): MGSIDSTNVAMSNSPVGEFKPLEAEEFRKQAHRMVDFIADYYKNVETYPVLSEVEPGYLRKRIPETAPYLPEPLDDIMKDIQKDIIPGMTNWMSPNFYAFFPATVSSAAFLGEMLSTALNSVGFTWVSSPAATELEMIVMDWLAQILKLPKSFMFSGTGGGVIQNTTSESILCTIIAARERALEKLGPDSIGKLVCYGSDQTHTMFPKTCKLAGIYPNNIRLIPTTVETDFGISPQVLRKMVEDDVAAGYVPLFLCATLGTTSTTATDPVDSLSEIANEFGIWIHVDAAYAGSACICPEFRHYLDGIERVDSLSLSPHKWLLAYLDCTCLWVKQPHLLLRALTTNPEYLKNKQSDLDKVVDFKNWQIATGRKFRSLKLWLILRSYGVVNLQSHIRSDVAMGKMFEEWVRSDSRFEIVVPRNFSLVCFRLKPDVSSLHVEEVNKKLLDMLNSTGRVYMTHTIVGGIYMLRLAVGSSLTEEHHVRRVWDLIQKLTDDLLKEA
T5 sequence (B3R7Q6 entry or part of it W192F/F197I): as the sequence (B3R7Q6 entry or part of it W192F/F197L) above, with L197I counted along it
T3 sequence (B3R7Q6 entry or part of it W192F/E219C): as the sequence (B3R7Q6 entry or part of it W192F/F197L) above, with L197F, E219C counted along it

N[C@@H](Cc1c[nH]c2ccc(O)cc12)C(=O)O [5HTP]
whole-cell bioconversion, HPLC of serotonin [1]: The consumption of 5HTP and serotonin production had a strong correlation

N[C@@H](Cc1c[nH]c2ccccc12)C(=O)O [tryptophan]
Km [2]: 1600 µM | Km [3]: 1800 µM | Km [4]: 3000 µM | Km [5]: 2100 µM | Km [6]: 950 µM
